From US8680062B2, “System for delivering therapeutic agents into living cells and cells nuclei” (Deliversir Ltd., priority 2004, dated 2014)

Tests used:
rTh polymerase = molecular target: T1, rTh polymerase (Thermus thermophilus, UniProt P52028); assay: PCR polymerase assay of modified nucleotide as substrate in place of dTTP; type: biochemical; conditions: typical PCR conditions, Taq, Vent, Pfu and rTh polymerases tested
T1 construct: purchased
Source text: The modified nucleotides described above were tasted in polymerase assays to determine their compatibility as substrates for polymerase reactions. The modified nucleotide Compound 7 (modified dUTP), served as a substrate in place of deoxythymidinetriphosphate, dTTP, for thermostable DNA polymerases using typical PCR conditions. Commercially available thermostable DNA polymerases from […] were used in the assays: Taq from Thermus aquaticus, Vent from Thermococcus litoralis, Pfu from Pyrococcus furiosus, and rTh from Thennus thennophilus.

DNA polymerase I = DNA polymerase I (Escherichia coli, UniProt P00582); conditions: 90 minute time point; 5.4 Kb plasmid, 15° C., 3H-dGTP counting
Sequence of DNA polymerase I (P00582 whole entry): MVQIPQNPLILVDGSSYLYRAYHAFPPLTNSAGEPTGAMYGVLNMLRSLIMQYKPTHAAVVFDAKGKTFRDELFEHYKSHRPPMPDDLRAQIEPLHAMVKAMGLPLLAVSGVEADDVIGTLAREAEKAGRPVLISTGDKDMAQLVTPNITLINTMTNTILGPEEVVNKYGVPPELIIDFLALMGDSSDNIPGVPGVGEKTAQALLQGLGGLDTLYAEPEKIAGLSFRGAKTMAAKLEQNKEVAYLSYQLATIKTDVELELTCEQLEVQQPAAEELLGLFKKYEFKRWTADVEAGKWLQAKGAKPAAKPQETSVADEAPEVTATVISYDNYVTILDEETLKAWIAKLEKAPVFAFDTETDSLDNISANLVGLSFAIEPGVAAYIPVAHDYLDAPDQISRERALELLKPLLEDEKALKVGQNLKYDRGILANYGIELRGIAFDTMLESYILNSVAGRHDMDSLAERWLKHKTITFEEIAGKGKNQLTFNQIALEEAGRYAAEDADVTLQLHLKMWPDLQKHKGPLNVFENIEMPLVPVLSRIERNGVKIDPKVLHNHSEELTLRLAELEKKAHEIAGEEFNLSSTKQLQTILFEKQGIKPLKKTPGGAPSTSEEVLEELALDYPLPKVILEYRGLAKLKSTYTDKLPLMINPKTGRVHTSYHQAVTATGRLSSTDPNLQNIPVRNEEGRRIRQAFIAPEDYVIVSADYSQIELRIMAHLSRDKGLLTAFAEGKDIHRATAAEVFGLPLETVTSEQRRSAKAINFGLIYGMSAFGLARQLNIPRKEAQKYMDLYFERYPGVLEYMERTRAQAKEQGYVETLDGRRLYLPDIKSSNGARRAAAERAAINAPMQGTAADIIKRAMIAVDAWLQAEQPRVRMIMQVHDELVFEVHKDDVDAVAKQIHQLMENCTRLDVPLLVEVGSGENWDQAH
Experimental: At each time point of interest, 2 μl from the reaction mixture were withdrawn, spotted on glass fiber filters (GF/C), washed once with 10% trichloroacetic acid (TCA) and twice with 5% TCA, and with alcohol and was thereafter dried. The filters were loaded to a liquid scintillation counter for measurements of the progression of the polymerase reaction and the relative level of incorporation.

T1 sequence (P52028 whole entry): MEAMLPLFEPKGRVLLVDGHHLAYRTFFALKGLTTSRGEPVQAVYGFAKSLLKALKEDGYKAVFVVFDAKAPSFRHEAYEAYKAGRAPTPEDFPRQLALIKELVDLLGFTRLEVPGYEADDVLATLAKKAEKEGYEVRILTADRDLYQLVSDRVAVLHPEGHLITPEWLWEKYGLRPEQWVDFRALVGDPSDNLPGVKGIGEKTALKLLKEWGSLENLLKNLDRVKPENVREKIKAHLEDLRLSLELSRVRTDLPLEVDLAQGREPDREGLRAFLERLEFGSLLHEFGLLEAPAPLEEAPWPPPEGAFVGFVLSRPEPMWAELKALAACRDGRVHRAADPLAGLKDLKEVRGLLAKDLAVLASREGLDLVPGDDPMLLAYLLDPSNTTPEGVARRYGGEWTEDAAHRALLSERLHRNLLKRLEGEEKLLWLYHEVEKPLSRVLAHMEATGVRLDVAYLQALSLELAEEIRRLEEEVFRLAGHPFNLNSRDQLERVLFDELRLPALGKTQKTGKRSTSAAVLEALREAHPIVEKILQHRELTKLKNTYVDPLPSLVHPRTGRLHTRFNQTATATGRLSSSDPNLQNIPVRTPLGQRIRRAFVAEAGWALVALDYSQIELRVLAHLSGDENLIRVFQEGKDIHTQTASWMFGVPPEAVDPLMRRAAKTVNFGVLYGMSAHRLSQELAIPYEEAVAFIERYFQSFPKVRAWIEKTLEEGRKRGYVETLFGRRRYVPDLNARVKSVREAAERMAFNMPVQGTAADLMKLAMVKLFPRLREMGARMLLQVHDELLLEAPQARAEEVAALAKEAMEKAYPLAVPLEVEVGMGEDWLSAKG

Row | Molecule | incorporation into PCR product as polymerase substrate (rTh polymerase) | relative levels of incorporation of the modified deoxynucleotides (DNA polymerase I) [%]
1 | NC/C=C/c1cn(C2CC(O)C(COP(=O)(O)OP(=O)(O)OP(=O)(O)O)O2)c(=O)[nH]c1=O (stereo not shown) [Compound 7, 5′-triphosphate-5-(3-aminopropen-1-yl)deoxyuridine] | incorporation into a 561 base pair product only with rTh polymerase | 
2 | NCCCCCCNc1ncnc2c1ncn2[C@H]1C[C@H](O)[C@@H](COP(=O)(O)OP(=O)(O)OP(=O)(O)O)O1 [N^6-aminohexyl dATP, reference compound] |  | 70
3 | urocanic acid modified dCTP [Compound 11] |  | 44
4 | urocanic acid modified dUTP [Compound 8] |  | 54
